Our source for the DC50 and IC50 values is US20260167620A1, “MULTIFUNCTIONAL COMPOUND CAPABLE OF DEGRADING BTK KINASE, AND COMPOSITION AND USE” (HANGZHOU HEALZEN THERAPEUTICS CO., LTD., priority 2021, published 2026).

As a reminder, the DC50 is the midpoint of the concentration-degradation curve. What is called IC50 is the midpoint of a concentration-inhibition curve. A lower IC50 goes with greater potency in that assay.

Format in all cases: cell-based
The target of one assay is T1, BTK (Homo sapiens, UniProt Q06187).
T1 construct: endogenous in cells; host or cells: Mino cells
The assay is described as follows: BTK degradation activity test in Mino cells (Westernblot or Elisa). The note with it: 24-72 h incubation. As for the experimental part: The Mino cell line cells are 0.5˜1 million/well in 6-well plates. The compounds are diluted to different concentrations, added to the plate, and after 24-72 h of incubation, the cells are collected. After the cells were lysed, the total protein concentration in each well was determined with a BCA kit. The amount of BTK is determined using the Westernblot or Elisa method.

The test system of another assay is Mino cells. The assay is described as follows: Inhibitory activity on Mino cell proliferation (MTS). The note with it: Homo sapiens, 72 h or 168 h. As for the experimental part:
(§1) The anti-tumor efficacy of the compounds was tested by measuring their inhibitory effects on OCI-LY10 and Mino cell proliferation. OCI-LY10 and Mino cells were cultured in RPM-1640 medium containing […] fetal calf serum. OCI-LY10 and Mino cells were digested, inoculated in a 96-well plate at a cell concentration of 10000 cells/well, and incubated overnight at 37° C., 5% CO2. Compounds of different concentrations (1000 nM, 4-fold dilution, 8 points) were added to the 96-well plate and incubated for 72 h or 168 h at 37° C. and […], and then 20 μL of MTS was added to each well. After incubation for 2 h, 25 μl of 10% SDS was added to each well to terminate the reaction. The absorbance at 490 nm and 650 nm were measured with a microplate reader. IC50 was calculated using GraphPad Prism 5.0.

For the next assay, the system named is OCI-LY10 cells. The assay is described as follows: Inhibitory activity on OCI-LY10 cell proliferation (MTS). The note with it: Homo sapiens, 72 h or 168 h. As for the experimental part: as §1

T1 sequence (Q06187 whole entry): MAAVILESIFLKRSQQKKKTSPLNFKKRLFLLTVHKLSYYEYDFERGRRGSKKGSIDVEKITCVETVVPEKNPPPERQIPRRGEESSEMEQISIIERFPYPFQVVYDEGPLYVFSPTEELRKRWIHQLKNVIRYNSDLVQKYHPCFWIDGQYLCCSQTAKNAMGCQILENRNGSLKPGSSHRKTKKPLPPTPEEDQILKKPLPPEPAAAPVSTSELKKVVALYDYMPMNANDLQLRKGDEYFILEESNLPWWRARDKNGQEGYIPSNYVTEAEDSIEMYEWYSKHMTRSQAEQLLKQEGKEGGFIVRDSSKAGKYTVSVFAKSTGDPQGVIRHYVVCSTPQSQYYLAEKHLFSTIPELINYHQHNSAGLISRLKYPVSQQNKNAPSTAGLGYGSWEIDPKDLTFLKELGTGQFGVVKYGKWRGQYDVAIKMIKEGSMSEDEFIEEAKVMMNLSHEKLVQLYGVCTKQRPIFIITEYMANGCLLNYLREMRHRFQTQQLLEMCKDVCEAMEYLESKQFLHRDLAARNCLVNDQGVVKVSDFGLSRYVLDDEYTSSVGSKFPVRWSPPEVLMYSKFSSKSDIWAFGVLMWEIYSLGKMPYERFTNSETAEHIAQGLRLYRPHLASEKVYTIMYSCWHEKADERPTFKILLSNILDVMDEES

With `NC(=O)c1nnc(N2CCCCC2)nc1Nc1ccc(C2CCN(CC3CCN(c4ccc5c(c4)C(=O)N(C4CCC(=O)NC4=O)C5=O)C3)CC2)nn1` (stereo not shown) [Compound 004, 5-((6-(1-((1-(2-(2,6-dioxopiperidin-3-yl)-1,3-dioxoisoindolin-5-yl)pyrrolidin-3-yl)methyl)piperidin-4-yl)pyridazin-3-yl)amino)-3-(piperidin-1-yl)-1,2,4-triazine-6-carboxamide], the DC50 at BTK is < 10 nM. Moreover, the IC50 in the assay on Mino cells came to 1.15 nM; in the assay with OCI-LY10 cells it was 0.18 nM.

As for `NC(=O)c1nnc(N2CCCCC2)nc1Nc1cnc(C2CCN(CC3CCN(c4ccc5c(c4)C(=O)N(C4CCC(=O)NC4=O)C5=O)C3)CC2)nc1` (stereo not shown) [Compound 005, 5-((2-(1-((1-(2-(2,6-dioxopiperidin-3-yl)-1,3-dioxoisoindolin-5-yl)pyrrolidin-3-yl)methyl)piperidin-4-yl)pyrimidin-5-yl)amino)-3-(piperidin-1-yl)-1,2,4-triazine-6-carboxamide], at BTK, the DC50 is < 10 nM. Also, the IC50 stood at 2.47 nM in the assay on Mino cells and 0.41 nM in the assay with OCI-LY10 cells.

Consider `Cn1c(=O)n(C2CCC(=O)NC2=O)c2ccc(N3CCC(CN4CCC(c5ccc(Nc6nc(N7CCCCC7)nnc6C(N)=O)cc5)CC4)C3)cc21` (stereo not shown) [Compound 011, 5-((4-(1-((1-(1-(2,6-dioxopiperidin-3-yl)-3-methyl-2-oxo-2,3-dihydro-1H-benzo[d]imidazol-5-yl)pyrrolidin-3-yl)methyl)piperidin-4-yl)phenyl)amino)-3-(piperidin-1-yl)-1,2,4-triazine-6-carboxamide], for which, on BTK, the DC50 is < 10 nM. The compound further returned an IC50 in the assay on Mino cells of 4.2 nM.

With `NC(=O)c1nnc(N2CCCCC2)nc1Nc1ccc(C2CCN(CC3CCN(c4ccc5c(=O)n(C6CCC(=O)NC6=O)ccc5c4)C3)CC2)cc1` (stereo not shown) [Compound 012, 5-((4-(1-((1-(2-(2,6-dioxopiperidin-3-yl)-1-oxo-1,2-dihydroisoquinolin-6-yl)pyrrolidin-3-yl)methyl)piperidin-4-yl)phenyl)amino)-3-(piperidin-1-yl)-1,2,4-triazine-6-carboxamide], the DC50 on BTK was < 10 nM. Besides, the IC50 in the assay with Mino cells is 1.22 nM.

Turning to `NC(=O)c1nnc(N2CCCCC2)nc1Nc1ccc(C2CCN(CC3CCN(c4ccc5c(c4)CCN(C4CCC(=O)NC4=O)C5=O)C3)CC2)cc1` (stereo not shown) [Compound 013, 5-((4-(1-((1-(2-(2,6-dioxopiperidin-3-yl)-1-oxo-1,2,3,4-tetrahydroisoquinolin-6-yl)pyrrolidin-3-yl)methyl)piperidin-4-yl)phenyl)amino)-3-(piperidin-1-yl)-1,2,4-triazine-6-carboxamide], the DC50 on BTK was < 10 nM. The midpoint of inhibition with Mino cells, the IC50, lay at 3.37 nM.

In the case of `NC(=O)c1cnc(N2CCCCC2)nc1Nc1ccc(C2CCN(CC3CCN(c4ccc5c(c4)C(=O)N(C4CCC(=O)NC4=O)C5=O)C3)CC2)cc1` (stereo not shown) [Compound 033, 4-((4-(1-((1-(2-(2,6-dioxopiperidin-3-yl)-1,3-dioxoisoindolin-5-yl)pyrrolidin-3-yl)methyl)piperidin-4-yl)phenyl)amino)-2-(piperidin-1-yl) pyrimidine-5-carboxamide], the DC50 at BTK is < 10 nM. The compound also had an IC50 in the assay on Mino cells of 9.1 nM.

In the case of `NC(=O)c1nnc(N2CCCCC2)nc1Nc1ccc(N2CCC(CN3CCN(c4ccc(N5CCC(=O)NC5=O)cc4)CC3)CC2)nc1` [Compound 048, 5-((6-(4-((4-(4-(2,4-dioxotetrahydropyrimidin-1(2H)-yl)phenyl)piperazin-1-yl)methyl)piperidin-1-yl)pyridin-3-yl)amino)-3-(piperidin-1-yl)-1,2,4-triazine-6-carboxamide], the DC50 at BTK was < 10 nM. For the same compound, the IC50 with OCI-LY10 cells was 0.61 nM.

As to `NC(=O)c1nnc(N2CCCCC2)nc1Nc1ccc(N2CCC(CN3CCN(c4ccc(N5CCC(=O)NC5=O)cc4)CC3)CC2)c(F)c1` [Compound 050, 5-((4-(4-((4-(4-(2,4-dioxotetrahydropyrimidin-1(2H)-yl)phenyl)piperazin-1-yl)methyl)piperidin-1-yl)-3-fluorophenyl)amino)-3-(piperidin-1-yl)-1,2,4-triazine-6-carboxamide], the DC50 at BTK is < 10 nM. Also, in the assay on Mino cells, the IC50 is 6.05 nM.

In the case of `NC(=O)c1nnc(N2CCCCC2)nc1Nc1ccc(N2CCC(CN3CCN(c4ccc(C5CCC(=O)NC5=O)cn4)CC3)CC2)c(F)c1` (stereo not shown) [Compound 053, 5-((4-(4-((4-(5-(2,6-dioxopiperidin-3-yl)pyridin-2-yl)piperazin-1-yl)methyl)piperidin-1-yl)-3-fluorophenyl)amino)-3-(piperidin-1-yl)-1,2,4-triazine-6-carboxamide], the DC50 at BTK was < 10 nM. In the assay on OCI-LY10 cells, this compound had an IC50 of 1.73 nM.

For `Cc1cc(N2CCN(CC3CCN(c4ccc(Nc5nc(N6CCCCC6)nnc5C(N)=O)cc4F)CC3)CC2)ccc1N1CCC(=O)NC1=O` [Compound 076, 5-((4-(4-((4-(4-(2,4-dioxotetrahydropyrimidin-1(2H)-yl)-3-methylphenyl)piperazin-1-yl)methyl)piperidin-1-yl)-3-fluorophenyl)amino)-3-(piperidin-1-yl)-1,2,4-triazine-6-carboxamide], the DC50 at BTK was < 10 nM. 1.09 nM corresponded to half-maximal inhibition with OCI-LY10 cells (IC50).

On to `NC(=O)c1nnc(N2CCCCC2)nc1Nc1ccc(N2CCN(CC3CCN(c4ccc(N5CCC(=O)NC5=O)c(F)c4)CC3)CC2)c(F)c1` [Compound 078, 5-((4-(4-((1-(4-(2,4-dioxotetrahydropyrimidin-1(2H)-yl)-3-fluorophenyl)piperidin-4-yl)methyl)piperazin-1-yl)-3-fluorophenyl)amino)-3-(piperidin-1-yl)-1,2,4-triazine-6-carboxamide], for which the DC50 on BTK is < 10 nM. In the assay with OCI-LY10 cells, this compound returned an IC50 of 0.7 nM.

For `NC(=O)c1nnc(N2CCCCC2)nc1Nc1ccc(N2CCN(CC3CCN(c4ccc(C(=O)NC5CCC(=O)NC5=O)c(F)c4)CC3)CC2)c(F)c1` (stereo not shown) [Compound 083, 5-((4-(4-((1-(4-((2,6-dioxopiperidin-3-yl)carbamoyl)-3-fluorophenyl)piperidin-4-yl)methyl)piperazin-1-yl)-3-fluorophenyl)amino)-3-(piperidin-1-yl)-1,2,4-triazine-6-carboxamide], the DC50 at BTK is < 10 nM. This compound also returned an IC50 with OCI-LY10 cells of 1.24 nM.

In the case of `Cc1cc(N2CCC(=O)NC2=O)ccc1N1CCC(CN2CCN(c3ccc(Nc4nc(N5CCCCC5)nnc4C(N)=O)cc3F)CC2)CC1` [Compound 084, 5-((4-(4-((1-(4-(2,4-dioxotetrahydropyrimidin-1(2H)-yl)-2-methylphenyl)piperidin-4-yl)methyl)piperazin-1-yl)-3-fluorophenyl)amino)-3-(piperidin-1-yl)-1,2,4-triazine-6-carboxamide], the DC50 on BTK was < 10 nM. In the assay with Mino cells, this compound yielded an IC50 of 3.3 nM.

Take `NC(=O)c1nnc(N2CCCCC2)nc1Nc1ccc(N2CCN(CC3CCN(c4ccc(N5CCC(=O)NC5=O)cc4F)CC3)CC2)c(F)c1` [Compound 086, 5-((4-(4-((1-(4-(2,4-dioxotetrahydropyrimidin-1(2H)-yl)-2-fluorophenyl)piperidin-4-yl)methyl)piperazin-1-yl)-3-fluorophenyl)amino)-3-(piperidin-1-yl)-1,2,4-triazine-6-carboxamide]: the half-maximal degradation concentration (DC50) at BTK was < 10 nM. Half-maximal inhibition with OCI-LY10 cells (IC50) was put at 0.7 nM.

For the compound `NC(=O)c1nnc(N2CCCCC2)nc1Nc1ccc(N2CCN(CC3CCN(c4ccc(-c5ccc(=O)[nH]n5)cc4C(F)(F)F)CC3)CC2)c(F)c1` [Compound 087, 5-((3-fluoro-4-(4-((1-(4-(6-oxo-1,6-dihydropyridazin-3-yl)-2-(trifluoromethyl)phenyl)piperidin-4-yl)methyl)piperazin-1-yl)phenyl)amino)-3-(piperidin-1-yl)-1,2,4-triazine-6-carboxamide], the DC50 at BTK was < 10 nM. Besides, the IC50 in the assay with Mino cells stood at 4.31 nM.

Regarding `NC(=O)c1nnc(N2CCCCC2)nc1Nc1ccc(N2CCN(CC3CCN(c4ccc(NC5CCC(=O)NC5=O)c(F)c4)CC3)CC2)c(F)c1` (stereo not shown) [Compound 088, 5-((4-(4-((1-(4-((2,6-dioxopiperidin-3-yl)amino)-3-fluorophenyl)piperidin-4-yl)methyl)piperazin-1-yl)-3-fluorophenyl)amino)-3-(piperidin-1-yl)-1,2,4-triazine-6-carboxamide], at BTK, the DC50 is < 10 nM. Also, in the assay with OCI-LY10 cells, it took 0.66 nM to reach half-maximal inhibition (IC50).

`Cc1cc(N2CCC(CN3CCN(c4ccc(Nc5nc(N6CCOCC6)nnc5C(N)=O)cc4F)CC3)CC2)ccc1N1CCC(=O)NC1=O` [Compound 098, 5-((4-(4-((1-(4-(2,4-dioxotetrahydropyrimidin-1(2H)-yl)-3-methylphenyl)piperidin-4-yl)methyl)piperazin-1-yl)-3-fluorophenyl)amino)-3-morpholino-1,2,4-triazine-6-carboxamide]: the DC50 on BTK is < 10 nM. For the same compound, inhibition in the assay with Mino cells was half-maximal at 3.11 nM (IC50).

As for `NC(=O)c1nnc(N2CCOCC2)nc1Nc1ccc(N2CCN(CC3CCN(c4ccc(NC5CCC(=O)NC5=O)nc4)CC3)CC2)c(F)c1` (stereo not shown) [Compound 104, 5-((4-(4-((1-(6-((2,6-dioxopiperidin-3-yl)amino)pyridin-3-yl)piperidin-4-yl)methyl)piperazin-1-yl)-3-fluorophenyl)amino)-3-morpholino-1,2,4-triazine-6-carboxamide], the DC50 on BTK was < 10 nM.
